Measured values taken from ChEMBL document CHEMBL1201862, “PubChem BioAssay data set” (2004).
Active and inactive are the calls of the source.

Columns and labels:
[1] = NIH3T3 cell viability loss – ATP luminescence, mouse fibroblasts, counter-screen, dose response (AID 2010); type: functional, cell-based;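 note: cells exposed to compound for about 90 hours before reading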
[2] = Trypanosoma cruzi growth suppression in host cells – NIH3T3 host cells, beta-gal luminescence, confirmation (AID 2044); type: functional, cell-based;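 note: intracellular parasites grown in NIH/3T3 mouse fibroblasts as host cells; luminescent beta-galactosidase reporter signal from transgenic T. cruzi replicating inside host cells; inhibitors lower the luminescence signal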
[3] = off-target signal loss in HeLa-CEM21 co-culture – HeLa F-luc CTL cells, cherry-picked, counter-screen for HIV-1 Env fusion inhibitor project, dose response (AID 652040); type: functional, cell-based;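 note: potency for signal decrease marking cytotoxic or nonspecific inhibition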
[4] = HIV-1 AD8 envelope cell-cell fusion blockers – cherry-pick, dose response (AID 652062); type: functional, cell-based;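 note: luciferase signal from cell-cell fusion driven by HIV-1 clade B AD8 Env; potency is for inhibitors of fusion seen as a drop in luminescence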
[5] = molecular target: Glyceraldehyde-3-phosphate dehydrogenase (Homo sapiens, UniProt P04406)
Bcl-2-related protein A1 [6] = molecular target: T1, Bcl-2-related protein A1 (Mus musculus, UniProt Q07440); experiment: Bfl-1 binding inhibitors, SAR follow-up, biochemical, fluorescence polarization (AID 1070)
T1 sequence (Q07440 whole entry): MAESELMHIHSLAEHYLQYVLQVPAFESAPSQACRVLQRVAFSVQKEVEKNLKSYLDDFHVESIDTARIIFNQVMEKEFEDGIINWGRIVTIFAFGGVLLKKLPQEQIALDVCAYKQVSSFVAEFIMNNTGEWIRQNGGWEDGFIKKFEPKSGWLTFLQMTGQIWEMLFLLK

Bcl-2-related protein A1 [7] = molecular target: T1, Bcl-2-related protein A1; experiment: small-molecule antagonists of Bfl-1/BH3 interaction – biochemical, TR-FRET, mouse Bfl-1, confirmation (AID 621);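 note: TR-FRET binding of GST-Bfl-1 to FITC-labelled Bid peptide via terbium antibody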
Protein skinhead-1 = molecular target: T2, Protein skinhead-1 (Caenorhabditis elegans, UniProt P34707); type: functional
T2 sequence (P34707 whole entry): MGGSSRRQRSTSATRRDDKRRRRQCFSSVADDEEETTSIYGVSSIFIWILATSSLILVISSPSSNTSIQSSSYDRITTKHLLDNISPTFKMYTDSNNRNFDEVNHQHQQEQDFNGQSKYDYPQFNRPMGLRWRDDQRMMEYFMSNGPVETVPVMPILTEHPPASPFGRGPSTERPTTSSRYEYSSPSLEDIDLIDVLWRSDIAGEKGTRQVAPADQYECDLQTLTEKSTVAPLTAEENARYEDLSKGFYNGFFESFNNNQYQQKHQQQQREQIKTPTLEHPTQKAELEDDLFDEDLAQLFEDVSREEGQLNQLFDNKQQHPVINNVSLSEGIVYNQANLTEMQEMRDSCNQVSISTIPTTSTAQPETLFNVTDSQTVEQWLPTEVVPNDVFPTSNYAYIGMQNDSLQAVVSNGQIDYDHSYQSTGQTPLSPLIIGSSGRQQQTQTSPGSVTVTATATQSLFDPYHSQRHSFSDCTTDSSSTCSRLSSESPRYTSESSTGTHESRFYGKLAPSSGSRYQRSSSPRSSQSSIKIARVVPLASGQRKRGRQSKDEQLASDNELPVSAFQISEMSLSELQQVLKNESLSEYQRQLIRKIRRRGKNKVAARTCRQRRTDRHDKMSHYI

[8] = molecular target: FAD-linked sulfhydryl oxidase ALR (Homo sapiens, UniProt P55789); experiment: ALR-catalysed DTT oxidation blockers – biochemical, H2O2 detection, luminescence, cherry-pick, dose response (AID 493248)
[9] = HIV-1 Vif–A3G interaction blockers – biochemical, TR-FRET, GST-Vif 1-94, biotin-A3G peptide, dose response retest, primary screen (AID 1117319); type: functional;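 note: TR-FRET signal of purified GST-Vif binding a biotinylated A3G peptide; inhibitors lower the FRET signal by blocking Vif and A3G binding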
[10] = molecular target: T3, Rac GTPase-activating protein 1 (Homo sapiens, UniProt Q9H0H5); experiment: blockers of MgcRacGAP-driven Rac1 GTP hydrolysis – biochemical, ADP Hunter fluorescence, primary and confirmatory, confirmation (AID 624330); type: functional
T3 sequence (Q9H0H5 whole entry): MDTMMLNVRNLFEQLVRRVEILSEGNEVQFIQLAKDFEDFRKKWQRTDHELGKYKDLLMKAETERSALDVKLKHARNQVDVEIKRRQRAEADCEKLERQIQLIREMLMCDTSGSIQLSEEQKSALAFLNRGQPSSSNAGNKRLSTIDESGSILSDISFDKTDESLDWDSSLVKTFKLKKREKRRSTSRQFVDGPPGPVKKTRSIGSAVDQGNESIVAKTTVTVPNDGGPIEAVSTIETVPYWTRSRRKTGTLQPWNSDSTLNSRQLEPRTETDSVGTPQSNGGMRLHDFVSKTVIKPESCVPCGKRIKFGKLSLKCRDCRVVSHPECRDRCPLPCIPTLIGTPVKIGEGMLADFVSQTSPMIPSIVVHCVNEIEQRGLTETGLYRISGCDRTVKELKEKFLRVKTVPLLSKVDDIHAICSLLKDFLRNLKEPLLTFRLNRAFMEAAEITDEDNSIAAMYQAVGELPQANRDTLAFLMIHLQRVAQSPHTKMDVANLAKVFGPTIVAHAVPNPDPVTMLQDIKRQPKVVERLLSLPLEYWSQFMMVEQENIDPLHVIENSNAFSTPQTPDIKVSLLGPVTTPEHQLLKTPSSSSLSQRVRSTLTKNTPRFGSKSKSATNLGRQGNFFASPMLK

Protein Tat = molecular target: T4, Protein Tat (Human immunodeficiency virus type 1 group M subtype B (isolate HXB2)(HIV-1), UniProt P04608); type: functional;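 note: tat binding to TAR RNA read out by fluorescence polarization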
T4 sequence (P04608 whole entry): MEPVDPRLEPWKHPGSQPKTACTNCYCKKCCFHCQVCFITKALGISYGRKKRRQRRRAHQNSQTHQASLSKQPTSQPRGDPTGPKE

Cytochrome P450 1A2 = molecular target: T5, Cytochrome P450 1A2 (Homo sapiens, UniProt P05177);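 note: PubChem cytochrome P450 panel assay, CYP1A2 panel member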
T5 sequence (P05177 whole entry): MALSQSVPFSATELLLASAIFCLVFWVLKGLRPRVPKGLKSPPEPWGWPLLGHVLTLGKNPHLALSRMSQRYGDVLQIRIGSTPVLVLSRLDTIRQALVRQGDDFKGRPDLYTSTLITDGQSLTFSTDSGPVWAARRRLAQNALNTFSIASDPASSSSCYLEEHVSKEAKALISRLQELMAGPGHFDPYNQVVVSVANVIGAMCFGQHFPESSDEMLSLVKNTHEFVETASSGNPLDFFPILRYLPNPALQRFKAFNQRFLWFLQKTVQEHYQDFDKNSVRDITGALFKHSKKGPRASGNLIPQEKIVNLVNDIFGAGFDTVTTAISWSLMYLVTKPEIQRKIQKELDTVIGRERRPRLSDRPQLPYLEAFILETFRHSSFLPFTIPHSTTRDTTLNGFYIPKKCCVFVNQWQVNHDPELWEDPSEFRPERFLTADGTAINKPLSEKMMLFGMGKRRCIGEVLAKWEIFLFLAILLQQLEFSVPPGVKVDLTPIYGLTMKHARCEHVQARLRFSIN

[11] = molecular target: T6, Dual specificity protein phosphatase 6 (Rattus norvegicus, UniProt Q64346); experiment: inhibition of rat DUSP6 enzyme activity – biochemical, in vitro, primary screen (AID 425)
T6 sequence (Q64346 whole entry): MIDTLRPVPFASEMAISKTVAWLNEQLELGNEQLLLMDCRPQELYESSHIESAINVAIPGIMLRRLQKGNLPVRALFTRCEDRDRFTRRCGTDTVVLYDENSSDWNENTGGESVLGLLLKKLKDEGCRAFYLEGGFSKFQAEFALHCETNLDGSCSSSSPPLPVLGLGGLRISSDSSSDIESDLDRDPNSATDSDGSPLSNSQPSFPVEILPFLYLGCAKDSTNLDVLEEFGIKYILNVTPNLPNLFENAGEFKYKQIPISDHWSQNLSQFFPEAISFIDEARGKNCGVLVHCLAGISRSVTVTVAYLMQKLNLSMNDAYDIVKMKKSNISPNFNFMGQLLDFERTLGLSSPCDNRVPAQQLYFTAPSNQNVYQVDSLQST

[12] = molecular target: T7, Sentrin-specific protease 1 (Homo sapiens, UniProt Q9P0U3); experiment: Dose response confirmation of small molecule inhibitors of the catalytic domain of the SUMO protease, SENP1 in a FRET assay.; type: functional; details: read-out: IC50_Mean
T7 sequence (Q9P0U3 whole entry): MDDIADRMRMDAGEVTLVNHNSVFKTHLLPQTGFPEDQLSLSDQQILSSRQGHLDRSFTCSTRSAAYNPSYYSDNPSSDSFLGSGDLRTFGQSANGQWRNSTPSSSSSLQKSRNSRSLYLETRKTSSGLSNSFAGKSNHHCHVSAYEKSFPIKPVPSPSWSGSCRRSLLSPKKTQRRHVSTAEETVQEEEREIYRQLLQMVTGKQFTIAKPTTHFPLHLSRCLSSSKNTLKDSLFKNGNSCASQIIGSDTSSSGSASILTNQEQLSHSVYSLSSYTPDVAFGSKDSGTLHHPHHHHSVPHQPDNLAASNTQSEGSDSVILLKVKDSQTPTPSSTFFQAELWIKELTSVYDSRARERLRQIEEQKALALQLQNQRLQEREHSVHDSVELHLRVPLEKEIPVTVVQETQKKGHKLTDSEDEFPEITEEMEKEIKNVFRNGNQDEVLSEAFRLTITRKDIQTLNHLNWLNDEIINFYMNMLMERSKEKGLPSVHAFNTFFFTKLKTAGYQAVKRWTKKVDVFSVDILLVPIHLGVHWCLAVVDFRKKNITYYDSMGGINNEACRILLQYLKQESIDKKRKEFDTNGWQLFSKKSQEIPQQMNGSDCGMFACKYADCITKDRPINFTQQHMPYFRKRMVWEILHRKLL

[13] = viability loss in THP-1 monocytes – THP-1 cells, cytotoxicity control for Vif-APOBEC3G degradation inhibitor project, dose response (AID 1117359); type: functional; details: THP-1
[14] = blockers of HIV-1 envelope-mediated cell-cell fusion – cherry-pick, dose response (AID 652057); type: functional, cell-based
[15] = blockers of HIV-1 ZM109 envelope-driven cell-cell fusion – HeLa effector, CEM target cells, luciferase, cherry-pick, dose response (AID 652058); type: functional, cell-based;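 note: luciferase signal from HIV-1 Env mediated cell-cell fusion of effector and target cells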
[16] = molecular target: T8, Mannose-6-phosphate isomerase (Homo sapiens, UniProt P34949); experiment: MPI inhibition at elevated mannose 6-phosphate – biochemical, fluorescence intensity, high mannose 6-phosphate, primary screen (AID 1220)
T8 sequence (P34949 whole entry): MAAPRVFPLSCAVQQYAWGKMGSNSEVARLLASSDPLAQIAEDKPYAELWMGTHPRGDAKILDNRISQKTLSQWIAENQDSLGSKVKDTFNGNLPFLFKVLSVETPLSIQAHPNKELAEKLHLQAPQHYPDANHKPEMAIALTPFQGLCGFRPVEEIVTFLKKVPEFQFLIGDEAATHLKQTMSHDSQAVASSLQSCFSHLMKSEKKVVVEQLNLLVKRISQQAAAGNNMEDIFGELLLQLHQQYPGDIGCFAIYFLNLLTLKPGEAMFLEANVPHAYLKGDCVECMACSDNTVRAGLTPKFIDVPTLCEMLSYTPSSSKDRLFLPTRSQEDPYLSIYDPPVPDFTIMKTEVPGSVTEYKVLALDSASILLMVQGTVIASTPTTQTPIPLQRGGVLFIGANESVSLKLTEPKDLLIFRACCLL

[17] = P. falciparum Dd2 growth inhibitors, dose response, SYBR Green, cherry-picked samples (AID 1159567); type: functional, cell-based

Sequence of Glyceraldehyde-3-phosphate dehydrogenase (P04406 whole entry): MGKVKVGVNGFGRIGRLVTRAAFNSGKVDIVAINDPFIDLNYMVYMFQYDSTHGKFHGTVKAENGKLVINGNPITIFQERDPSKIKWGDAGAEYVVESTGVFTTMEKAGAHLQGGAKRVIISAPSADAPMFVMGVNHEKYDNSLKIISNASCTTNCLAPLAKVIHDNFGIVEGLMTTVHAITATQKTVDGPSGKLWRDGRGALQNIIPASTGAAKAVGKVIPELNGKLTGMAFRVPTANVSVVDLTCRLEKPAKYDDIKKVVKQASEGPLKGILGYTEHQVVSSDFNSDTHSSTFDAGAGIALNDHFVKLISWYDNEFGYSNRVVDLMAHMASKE
Sequence of FAD-linked sulfhydryl oxidase ALR (P55789 whole entry): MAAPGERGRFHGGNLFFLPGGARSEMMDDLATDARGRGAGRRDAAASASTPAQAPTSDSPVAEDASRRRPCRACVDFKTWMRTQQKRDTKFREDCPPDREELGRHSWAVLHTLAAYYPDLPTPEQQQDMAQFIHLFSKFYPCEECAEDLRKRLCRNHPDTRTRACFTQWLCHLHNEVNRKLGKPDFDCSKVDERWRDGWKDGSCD

CC(=O)c1ccc(S(=O)(=O)N2CCN(c3nc4c(C)c(C)ccc4cc3C#N)CC2)cc1
EC50 [1]: > 60 µM (not active) | EC50 [2]: 1.9 µM (active) | AC50 [3]: 10.3 µM (active) | AC50 [4]: 11.2 µM (active)

CS(=O)(=O)c1nc(-c2ccccc2)cc(-c2ccccc2)n1
IC50 [5]: > 100 µM (not active) | IC50 (Bcl-2-related protein A1 [6]): > 100 µM (not active) | IC50 (Bcl-2-related protein A1 [7]): > 100 µM (not active)

Cc1cccc(N2C(=O)C(Cl)=C(N3CCN(CCO)CC3)C2=O)c1
IC50 [5]: > 100 µM (not active) | IC50 (Bcl-2-related protein A1 [6]): 12.3 µM (active) | IC50 (Bcl-2-related protein A1 [7]): 11.5 µM (active)

CC(=O)N1CCN(c2ccc(NCc3ccccc3)cc2)CC1
IC50 (Protein skinhead-1): > 100 µM (inactive) | AC50 [8]: 0.57 µM (active) | IC50 [9]: > 50.5 µM (active) | IC50 [10]: 10.5 µM (active) | IC50 (Protein Tat): 13.7 µM (inconclusive)

COc1ccc(S(=O)(=O)N2CCC(NC(=O)Nc3ccc(C)cc3)CC2)cc1
AC50 (Cytochrome P450 1A2): 31.6 µM (inconclusive) | IC50 [11]: > 100 µM (not active)

O=C1C(Cl)=C(N2CCN(c3ncccn3)CC2)C(=O)N1c1ccc(Cl)c(Cl)c1
IC50 [5]: > 100 µM (not active) | IC50 (Bcl-2-related protein A1 [6]): 1.9 µM (active) | IC50 (Bcl-2-related protein A1 [7]): 2.46 µM (active)

Nc1cc([N+](=O)[O-])ccc1Nc1ccccc1
AC50 [8]: 0.509 µM (active) | IC50 [12]: 37.8 µM (inactive)

COc1ccc(C(=O)Cn2c(=N)n(C)c3ccccc32)cc1
CC50 [13]: > 40 µM (active) | IC50 [9]: > 100 µM (active)

CN(C)CCn1c(=O)n(-c2cccc(Cl)c2)c(=O)c2c3c(sc21)CCCCC3
AC50 [14]: 0.786 µM (active) | AC50 [3]: 1.96 µM (active) | AC50 [4]: 4.37 µM (active) | AC50 [15]: 0.997 µM (active)

Cc1cccc(Oc2c([N+](=O)[O-])c(=O)n(C)c3ccccc23)c1
IC50 [16]: > 50 µM (not active)

O=C1C(Cl)=C(Nc2ccccc2)C(=O)N1c1ccc(Cl)c(Cl)c1
IC50 [5]: > 100 µM (not active) | IC50 (Bcl-2-related protein A1 [6]): > 100 µM (not active) | IC50 (Bcl-2-related protein A1 [7]): > 100 µM (not active)

COC(=O)[C@]1(C)N[C@H](CN(C)S(=O)(=O)c2ccc(-c3ccccc3)cc2)[C@@H]2C(=O)N(Cc3ccccc3)C(=O)[C@@H]21
AC50 [14]: 3.7 µM (active) | AC50 [3]: 5.77 µM (active) | AC50 [4]: 11.7 µM (active) | AC50 [15]: 9.4 µM (active)

CC(C)n1/c(=N/C(=O)c2ccco2)c(C#N)cc2c(=O)n3ccccc3cc21
IC50 [9]: > 100 µM (active)

CCS(=O)(=O)N1[C@H](CO)[C@H](c2ccc(C#Cc3ccccc3F)cc2)[C@@H]1C#N
AC50 [17]: 4.23 µM (active)
